For orientation: IC50 means the concentration needed to halve the response being measured.

The subject of one data set is HOS osteosarcoma cells. The data set is described as follows: MTT in vitro cytotoxicity, HOS. It counts as cell-based, human. To be noted: 24 h treatment, read-out: IC50±S.E., HOS. Here is the method:
(§1) In vitro cytotoxic activity was determined by the MTT assay in human breast adenocarcinoma (MCF7; ECACC no. 86012803), human osteosarcoma (HOS; ECACC no. 87070202), lung carcinoma (A549; ECACC no. 86012804), malignant melanoma (G361; ECACC no. 88030401), cervix epitheloid carcinoma (HeLa; ECACC no. 93021013), ovarian carcinoma (A2780; ECACC no. 93112519), cisplatin-resistant ovarian carcinoma (A2780R; […] ECACC no 105092802) cancer cell lines, purchased from European Collection of Cell Cultures (ECACC). […] The primary culture of human hepatocytes (HEP220, batch number HEP220819) was obtained from Biopredic International (France). The culture medium was Williams and HAM's F-12 (1∶1) supplemented with penicillin, streptomycin, ascorbic acid, linoleic acid, holo-transferin, ethanolamine, glucagon, insulin, dexamethasone, pyruvate, glucose, glutamine, amphotericin. The medium was enriched for plating with 2% foetal calf serum (v/v). The medium was exchanged for a serum-free medium the day after and the culture was stabilized for additional 24 h. Thereafter, the cells were ready for treatments. […] The MTT assay was performed spectrophotometrically at 540 nm (TECAN, Schoeller Instruments LLC). The cytotoxicity data were expressed as the percentage of viability, where 100% represented the treatments with vehicle (0.1% DMF or 0.1% DMSO). The cytotoxicity data from the cancer cell lines were acquired from three independent experiments (conducted in triplicate) using cells from different passages. The IC50 values were calculated from viability curves. The results are presented as arithmetic means±standard error of the mean (S.E.).

The test system of data set [1] is primary culture of human hepatocytes (HEP220). The data set is described as follows: MTT in vitro cytotoxicity, primary human hepatocytes. Format: cell-based. To be noted: for IC50: 24 h treatment, MTT, read-out: IC50±S.E., HEP220 (healthy human hepatocytes). How it is done:
as §1

Another data set concerns TNF-α mRNA. The data set is described as follows: TNF-α gene expression by RT-qPCR in LPS-stimulated THP-1 macrophages. Format: cell-based, human. To be noted: 300 nM, 2 h after LPS, normalised to β-actin. How it is done:
(§2) For the determination of biological activity, we used the human monocytic leukaemia cell line THP-1 (ECACC, Salisbury, UK). The cells were cultivated at 37°C in the RPMI 1640 medium supplemented with 2 mM L-glutamine, 10% FBS, 100 U/mL of penicillin and 100 µg/mL of streptomycin in a humidified atmosphere containing 5% CO2. Stabilized cells (3rd–15th passage) were split into microtitration plates to get a concentration of 500 000 cells/mL and the differentiation to macrophages was induced by phorbol myristate acetate (PMA) dissolved in dimethyl sulfoxide (DMSO) at the final concentration of 50 ng/ml, and the cells were incubated for 24 h. In comparison with monocytes, differentiated macrophages tend to adhere to the bottoms of the cultivation plates. For next 24 h the cells were incubated with a fresh complete RPMI medium, i.e. containing antibiotics and FBS, without PMA. The medium was then aspirated, and the cells were washed with PBS and cultivated for next 24 hours in serum-free RPMI 1640 medium. These prepared macrophages were used for the detection of inflammatory response.
(§3) In the order to evaluate the expression of TNF-α, IL-1β, and β-actin mRNA, total RNA was isolated directly from the LPS-stimulated THP-1 cells. THP-1 macrophages were pretreated with compounds 2, 5, and Auranofin at the concentration of 300 nM or the vehicle (0.1% DMSO) only. After 1 h of the incubation, the inflammatory response was induced by LPS [except for the control cells (CTRL)]. After 2 h of the incubation with LPS, the medium was aspirated and the total RNA was isolated directly from the cells in cultivation plates using a RealTime Ready Cell Lysis Kit (Roche), according to the manufacturer's instructions.
(§4) The gene expression was quantified by two-step reverse-transcription quantitative (real-time) PCR (RT-qPCR). The reverse transcription step was performed by Transcriptor Universal cDNA Master using cell lysate as a template. […] The results were normalized to the amount of ROX reference dye, and the change in gene expression was determined by the 2^−ΔΔCT method. […]

The next data set has as its system IL-1β mRNA. Description: IL-1β gene expression by RT-qPCR in LPS-stimulated THP-1 macrophages. To be noted: 300 nM, 2 h after LPS, normalised to β-actin. Format: cell-based, human. How it is done:
as §2, §3, §4

Data set [2] has as its system IκB-α degradation (NF-κB signalling pathway). Description: LPS-induced IκB-α degradation (Western blot) in THP-1 macrophages. It counts as cell-based, human. To be noted: 300 nM, 30 min after LPS. Here is the method:
Macrophage-like THP-1 cells were pretreated with the tested compounds and stimulated by LPS as was describe above. Thirty minutes after the addition of LPS, the medium was aspirated and cells were washed by cold phosphate buffer solution (PBS). Subsequently, the cells were collected using the lysis buffer [50 mM Tris-HCl pH 7.5, 1 mM EGTA, 1 mM EDTA, 1 mM sodium orthovanadate, 50 mM sodium fluoride, 5 mM sodium pyrophosphate, 270 mM sucrose, 0.1% (v/v) Triton X-100, and cOmplete Protease Inhibitor Cocktail (Roche, Germany)] and scraper. The lysis of cells was facilitated by a short (≈30 s) incubation in the ultrasonic water bath. The protein concentration was determined according to Bradford's method. For protein separation, 30 µg of protein was loaded onto the 12% polyacrylamide gel. […] The membranes were incubated with the primary anti-IκB-α antibody at the concentration ratio of 1∶500, or with the primary anti-β-actin at the concentration ration of 1∶5 000 at 4°C for 16 h. After washing, the secondary anti-mouse IgG antibody diluted 1∶2 000 was applied on the membranes and incubated at laboratory temperature (22°C) for 1 h. The amount of the bound secondary antibody was detected colorimetrically by an Opti-4CN Kit according to the manufacturer's manual.
Background: In western blotting, separated proteins are transferred to a membrane and probed.

Take `[Au][n]1ccc2ncnc(OCCc3ccccc3)c21.c1ccc(P(c2ccccc2)c2ccccc2)cc1` [complex 5]: the half-inhibitory concentration (IC50) was 2.9 ± 0.1 µM in the data set on HOS osteosarcoma cells and 19 ± 1.8 µM in data set [1]. Further, in the data set with TNF-α mRNA, the “effect on TNF-α mRNA transcription” value is given as “significantly reduce the transcription”. In addition, the “effect on IL-1β mRNA transcription” value in the data set on IL-1β mRNA is given as “significantly reduce the transcription”. Moreover, the “effect on LPS-induced IκB degradation” value in data set [2] is “block moderately the IκB degradation”.
For `CC(C)Oc1ncnc2cc[n]([Au])c12.c1ccc(P(c2ccccc2)c2ccccc2)cc1` [complex 2, [Au(L2)(PPh3)]], the IC50 with HOS osteosarcoma cells came to 0.9 ± 0.2 µM; in data set [1] it was 18.5 ± 1.5 µM. Also, the “times lower cytotoxicity against healthy human cells (HEP220) than cancer cell lines” value in data set [1] (complex 2: MCF7 vs. HEP220) is listed as ~30 times. Further, in the data set with TNF-α mRNA, the “effect on TNF-α mRNA transcription” value is “significantly reduce the transcription”. For the same molecule, in the data set with IL-1β mRNA, the “effect on IL-1β mRNA transcription” value is recorded as “significantly reduce the transcription”. Also, the “effect on LPS-induced IκB degradation” value in data set [2] is “block moderately the IκB degradation”.
